In patent publication US20250276009A1, “Therapeutic use of hydrogen sulfide in frostbite injury” ([(The)] London Health Sciences Centre Research Inc., priority 2024, published 2025):
Where two headings read alike, the source gives them in different places.

Key:
fibronectin = assay: Immunofluorescence staining of frostbite wound tissue, day 15: granulation tissue marker; type: in vivo, C57BL/6 mice (Mus musculus); details: for granulation tissue formation compared to vehicle control: daily topical in vehicle cream, day 15, p<0.001; for fibronectin expression: day 15
Method: (§1) Based on a previously validated model [1], 100% ceramic magnets (diameter 18.0 mm, thickness 5.0 mm, weight 4.5 g) were used to induce frostbite injury. Magnets were frozen in dry ice (−80° C.) prior to animal skin preparation. The dorsal skin of C57BL/6 mice (Mus musculus) was pinched to create a skin fold and a silicone sheet was placed underneath as illustrated in FIG. 1D. The silicone sheet acted as a barrier to prevent the mice from possible systemic hypothermia while creating a precise injury and maximizing survival. Two frozen magnets were then placed on the skin from opposite sides of the skin fold such that they adhered with the middle of the circle outline at the peak of the fold's center as described by Auerbach et al., [1] and illustrated in FIG. 1D. After 1 minute, the magnets were removed and new frozen magnets simultaneously placed in order to keep the freezing temperature of the magnets consistent and ensured that no thawing of the skin occurred. A total of 3 magnet exchange cycles occurred in order to induce frostbite injury to the mice for 3 minutes after which the skin was allowed to thaw completely. […] The animals were placed on a heating pad set to 37° C. to mitigate the risk of death due to systemic hypothermia. Upon induction of frostbite injury, the mice were randomly assigned to the following groups: vehicle cream control, 200 nM AP39 plus vehicle cream, 1 μM AP39 plus vehicle cream, 150 μM STS plus vehicle cream, 200 μmol/kg GYY4137 plus vehicle cream, and received daily topical application of vehicle cream without H2S donor, vehicle cream containing 200 nM AP39 (200 μL), vehicle cream containing 1 μM AP39 (200 μL), vehicle cream containing 150 μM STS (200 μL) and vehicle cream containing 200 μmol/kg GYY4137 (200 μL) respectively until time of sacrifice.
(§2) Post-procedure analgesia included administration of meloxicam at 1 mg/kg/day for 3 days. Another group of mice that received no frostbite injury or room temperature magnet placement served as healthy controls. All groups of mice were sacrificed by CO2 euthanasia on day 15 after frostbite induction or room temperature magnet placement, and samples of the injured dorsal skin tissue were collected and stored in 10% neutral buffered formalin for histopathological analysis. The animals were euthanized on day 15 because this is the time point at which markers of wound healing were expected to be best seen in the wound as previously reported [5].
(§3) Immunofluorescence staining was performed to detect the expression of cleaved caspase-3 (1:100; a marker for apoptosis and is being used to assess frostbite damage), CD31 (1:100; a marker of vascularization and angiogenesis, as it is found on early endothelial cells), KI-67 (1:50; a marker of proliferation, which is abundant in a healing wound as granulation tissue forms and re-epithelialization occurs), fibronectin (1:100; secreted by fibroblasts to generate granulation tissue, which is the new connective tissue that covers a wound.), cytokeratin (1:200; a marker of differentiation and proliferation of keratinocytes, which are important for re-epithelialization of a wound) and CD163 (1:200; a macrophage-specific marker during wound healing) [7, 8]. These antibodies were purchased from Abcam in Toronto, Canada to examine the degree of frostbite injury as well as important healing stages including angiogenesis, re-epithelialization, granulation tissue formation and inflammation. Following a rehydration step in xylene and decreasing series of alcohol (100%, 95%, 70% and 50%) and de-ionized water, the tissue sections were washed with 1× phosphate buffered saline (PBS) for 10 minutes.

[1] = system: frostbite injury on the dorsal skin of C57BL/6 mice; assay: Histopathological scoring (H&E) of frostbite wound tissue, day 15; type: in vivo, C57BL/6 mice (Mus musculus); details: for progress of frostbite wound healing phase (histopathology, collective): daily topical in vehicle cream, day 15; for chronic inflammation (histological score 0-3) vs vehicle control: 200 μmol/kg GYY4137 or 150 μM STS
Method: The formalin-fixed skin tissue samples were embedded in paraffin blocks and sectioned at 8-μm thick on a microtome and collected on SuperFrost Plus® glass slides (J1800AMNZ, Thermo Fisher Scientific Inc., Germany). Histology was performed on the tissue sections using hematoxylin and eosin (H&E) staining to visualize general tissue morphology and assess the degree of tissue injury. A modified version of a previously developed histological scoring system established by Abramov et al was used for this study. The histopathological scoring was assessed blindly by a dermatopathologist for 5 parameters of healing (acute inflammation, chronic inflammation, amount of granulation tissue, fibroblast maturation and re-epithelialization) and assigned a score as per the following scheme: 0=None; 1=Scant; 2=Moderate; 3=Abundant. Acute inflammation was scored based on the presence of neutrophils while chronic inflammation was evaluated based on the presence of plasma cells and monocytes. Fibroblast maturation was determined on the basis of shape and alignment of these cells.

CD31 = assay: Immunofluorescence staining of frostbite wound tissue, day 15: vascularization and angiogenesis marker; type: in vivo, C57BL/6 mice (Mus musculus); details: for angiogenesis compared to vehicle control: daily topical in vehicle cream, day 15, p<0.01
Method: as §1, §2, §3

KI-67 = assay: Immunofluorescence staining of frostbite wound tissue, day 15: proliferation marker; type: in vivo, C57BL/6 mice (Mus musculus); details: for cell proliferation compared to vehicle control: daily topical in vehicle cream, day 15, p<0.001
Method: as §1, §2
(§4) Immunofluorescence staining was performed to detect the expression of cleaved caspase-3 (1:100; a marker for apoptosis and is being used to assess frostbite damage), CD31 (1:100; a marker of vascularization and angiogenesis, as it is found on early endothelial cells), KI-67 (1:50; a marker of proliferation, which is abundant in a healing wound as granulation tissue forms and re-epithelialization occurs), fibronectin (1:100; secreted by fibroblasts to generate granulation tissue, which is the new connective tissue that covers a wound.), cytokeratin (1:200; a marker of differentiation and proliferation of keratinocytes, which are important for re-epithelialization of a wound) and CD163 (1:200; a macrophage-specific marker during wound healing) [7, 8]. These antibodies were purchased from Abcam in Toronto, Canada to examine the degree of frostbite injury as well as important healing stages including angiogenesis, re-epithelialization, granulation tissue formation and inflammation. […]

CD163 = assay: Immunofluorescence staining of frostbite wound tissue, day 15: macrophage-specific marker; type: in vivo, C57BL/6 mice (Mus musculus); details: for CD163 expression: day 15
Method: as §1, §2, §4

[2] = system: frostbite injury on the dorsal skin of C57BL/6 mice; assay: Frostbite wound size / wound healing after daily topical application of H2S donor in vehicle cream; type: in vivo, C57BL/6 mice (Mus musculus); details: for frostbite wound size compared to vehicle-treated control mice / reduction of frostbite wound from day 4 to day 15 versus vehicle control: daily topical; for frostbite wound healing compared to vehicle control group: daily topical in vehicle cream until day 15; for reduction of frostbite wound from day 4 to day 15 versus vehicle control: 150 μM STS or 200 μmol/kg GYY4137 in hyaluronan/phosphatidylethanolamine vehicle cream
Excerpt: The Animal Use Committee of the University of Western Ontario approved all experimental procedures. The experimental procedures were considered as Category D from the Canadian Council of Animal Care's Categories of Invasiveness for Animal Experiments. A total of 25 […] mice aged between 8-10 weeks old were obtained from Charles River Canada (Senneville, Quebec, Canada) and housed 5 per cage under a 12-hour light/dark cycle at the Health Sciences Animal Care Facility at the University of Western Ontario (London, Ontario, Canada). Mice were randomly assigned to 5 groups being healthy control (n=5), crush control (n=5), vehicle control (n=5), 200 nM AP39 (n=5) and 1 μM AP39 (n=5).
To ease the process of skin preparation, mice were initially anesthetized with a combination of 20 mg/ml xylazine and 100 mg/mL ketamine intraperitoneally, and the dorsal fur of the animals were shaved using electric clippers from the top of the hind legs to the base of the neck. A depilatory cream was then used to remove any fur still remaining. General anesthesia was maintained by inhalation of 5% isoflurane and oxygen delivered at 400 mL/minute to minimize the time of recovery post-anesthesia. Following complete fur removal, the skin of the animal was cleaned completely of the hair removal cream using an alcohol prep pad. Next, a silicone sheet was used as a template to trace a uniform circle on the surface of the skin using a permanent marker. The circular outline on the back of the animal was used as a guide during frostbite injury (see FIGS. 1A to 1E).
The vehicle cream containing hyaluronan and phosphatidylethanolamine (referred to as HEPE) as active ingredients, was provided by Dr. Eva Turley, and allowed for delivery of AP39 to the vascularized layers of the dermis. AP39 was generously provided by Dr. Matthew Whiteman (Exeter, UK) and diluted to a stock concentration of 1 mM in DMSO. […] To prepare the cream+H2S donor compound, the H2S donor was added via micropipette combined by stirring and subsequent mixing using a vortex device to final concentrations of 200 nM, 1 µM and 150 μM.

cleaved caspase-3 = assay: Immunofluorescence staining of frostbite wound tissue, day 15: apoptosis marker; type: in vivo, C57BL/6 mice (Mus musculus); details: daily topical in vehicle cream, day 15, vs vehicle control
Method: as §1
Another group of mice that received no frostbite injury or room temperature magnet placement served as healthy controls. […]

cytokeratin = details: day 15
Method: as §1
Post-procedure analgesia included administration of meloxicam at 1 mg/kg/day for 3 days. Another group of mice that received no frostbite injury or room temperature magnet placement served as healthy controls. All groups of mice were sacrificed by CO2 euthanasia on day 15 after frostbite induction or room temperature magnet placement, and samples of the injured dorsal skin tissue were collected and stored in 10% neutral buffered formalin for histopathological analysis. The animals were euthanized on day 15 because this is the time point at which markers of wound healing were expected to be best seen in the wound as previously reported [5]. […]

[3] = 1 μM AP39 vs 200 nM AP39 and vehicle control, day 15, p<0.05
[4] = 1 μM AP39, relative to 200 nM AP39, day 15, p<0.05
[5] = 150 μM STS in Aveeno vs Aveeno without STS
[6] = 150 μM STS in Dove vs Dove without STS
[7] = 150 μM STS in Neutrogena vs Neutrogena without STS
[8] = 150 μM STS in Nivea vs Nivea without STS
[9] = 150 μM STS with Nivea, vs Nivea alone

## O=C(CCCCCCCCC[P+](c1ccccc1)(c1ccccc1)c1ccccc1)Oc1ccc(-c2cc(=S)ss2)cc1.[Br-] [AP39, (10-oxo-10-(4-(3-thioxo-3H-1,2-dithiol-5-yl)phenoxy)decyl)triphenylphosphonium bromide]
fibronectin; 200 nM AP39, day 15
  fibronectin expression compared to vehicle control mice: significantly increased expression
fibronectin; 1 μM AP39, day 15
  fibronectin expression compared to vehicle control mice: significantly increased expression
fibronectin
  granulation tissue formation compared to vehicle control: improved
[1]; 200 nM AP39, day 15, p>0.05
  chronic inflammation (histological score 0-3): did not change
[1]; 200 nM AP39 vs 1 μM AP39 and vehicle control, day 15, p<0.05
  fibroblast maturation (histological score 0-3): highest
[1]; 1 μM AP39, day 15, p>0.05
  chronic inflammation (histological score 0-3): did not change
[1]; [3]
  acute inflammation (histological score 0-3): significantly greater
  amount of granulation tissue (histological score 0-3): markedly increased
[1]; AP39 (200 nM and 1 μM) vs vehicle control, day 15, p>0.05
  wound re-epithelialization (histological score 0-3): increased wound re-epithelialization (epithelial restitution) albeit not significantly different
[1]
  progress of frostbite wound healing phase (histopathology, collective): hastened frostbite wound healing from inflammatory to proliferative phase
CD31; 200 nM AP39, day 15, p<0.05
  CD31 expression: markedly expressed
CD31; [4]
  CD31 expression: significantly reduced
CD31
  angiogenesis compared to vehicle control: improved
KI-67; 200 nM AP39, day 15, p<0.05
  KI-67 expression: markedly expressed
KI-67; [4]
  KI-67 expression: significantly reduced
KI-67
  cell proliferation compared to vehicle control: improved
CD163; 200 nM AP39, day 15
  CD163 expression (M2-like anti-inflammatory macrophages): increased anti-inflammatory activity
[2]; 200 nM AP39 in vehicle cream containing hyaluronan and phosphatidylethanolamine, day 4 to day 15
  frostbite wound size compared to vehicle-treated control mice: progressively reduced wound size
[2]; 1 μM AP39 in vehicle cream containing hyaluronan and phosphatidylethanolamine, day 4 to day 15
  frostbite wound size compared to vehicle-treated control mice: progressively reduced wound size
[2]
  frostbite wound healing compared to vehicle control group: improved wound healing
Cleaved caspase-3
  apoptosis in frostbite injury (cleaved caspase-3 expression): no effect

## C1COCCN1.COc1ccc(P(=S)(S)N2CCOCC2)cc1 (centres unmarked) [GYY4137]
fibronectin
  granulation tissue formation compared to vehicle control: improved
[1]; day 15, p>0.05
  chronic inflammation (histological score 0-3) vs vehicle control: did not show significant difference
[1]
  progress of frostbite wound healing phase (histopathology, collective): hastened frostbite wound healing from inflammatory to proliferative phase
CD31
  angiogenesis compared to vehicle control: improved
KI-67
  cell proliferation compared to vehicle control: improved
[2]
  reduction of frostbite wound from day 4 to day 15 versus vehicle control: slightly smaller than that of the vehicle control
  frostbite wound healing compared to vehicle control group: improved wound healing
Cleaved caspase-3
  apoptosis in frostbite injury (cleaved caspase-3 expression): no effect

## O=S([O-])([O-])=S.[Na+].[Na+] [STS, sodium thiosulfate]
fibronectin; [5]
  fibronectin expression: significantly increased
fibronectin; [6]
  fibronectin expression: did not increase fibronectin expression significantly
fibronectin; [7]
  fibronectin expression: did not increase fibronectin expression significantly
fibronectin; [8]
  fibronectin expression: significantly increased
fibronectin
  granulation tissue formation compared to vehicle control: improved
[1]; day 15, p>0.05
  chronic inflammation (histological score 0-3) vs vehicle control: did not show significant difference
[1]
  progress of frostbite wound healing phase (histopathology, collective): hastened frostbite wound healing from inflammatory to proliferative phase
CD31; 150 μM STS in Aveeno vs Aveeno without STS, day 15
  CD31 expression: significant upregulation
CD31; 150 μM STS in Dove vs Dove without STS, day 15
  CD31 expression: significant upregulation
CD31; 150 μM STS in Neutrogena vs Neutrogena without STS, day 15
  CD31 expression: No significant change
CD31; 150 μM STS in Nivea vs Nivea without STS, day 15
  CD31 expression: significant upregulation
CD31
  angiogenesis compared to vehicle control: improved
KI-67
  cell proliferation compared to vehicle control: improved
CD163; [5]
  CD163 expression: significant increase
CD163; [6]
  CD163 expression: significant increase
CD163; [7]
  CD163 expression: decrease in CD163 expression albeit not significant
CD163; [8]
  CD163 expression: significant increase
[2]; 150 μM STS in commercially available creams (Aveeno, Dove, Neutrogena, Nivea), day 4 to day 15
  wound size compared to the corresponding vehicle control without STS: progressively reduced wound size
[2]
  reduction of frostbite wound from day 4 to day 15 versus vehicle control: slightly smaller than that of the vehicle control
  frostbite wound healing compared to vehicle control group: improved wound healing
[2]; 150 μM STS with Aveeno, vs Aveeno alone
  wound size, day 15: reduced wound size
[2]; 150 μM STS with Dove, vs Dove alone
  wound size, day 15: reduced wound size
[2]; [9]
  wound size, day 4: reduced wound size
  wound size, day 15: reduced wound size
[2]; STS via Aveeno and Nivea creams compared to Dove and Neutrogena
  wound healing, comparison of delivery creams: improved wound healing compared to Dove® and Neutrogena®
Cleaved caspase-3
  apoptosis in frostbite injury (cleaved caspase-3 expression): no effect
cytokeratin; [5]
  cytokeratin expression: significantly increased
cytokeratin; [6]
  cytokeratin expression: No significant change
cytokeratin; [7]
  cytokeratin expression: significantly increased
cytokeratin; [8]
  cytokeratin expression: significantly increased
